IC50 data for 33 compounds are collected here from patent publication US20090311217A1, “3-SUBSTITUTED-1H-INDOLE COMPOUNDS, THEIR USE AS MTOR KINASE AND PI3 KINASE INHIBITORS, AND THEIR SYNTHESES” (priority 2008, published 2009).

Molecules are shown by their SMILES.

One may read the IC50 as the midpoint of a concentration-inhibition curve.

One assay concerns the target PI3K-alpha (Homo sapiens, UniProt P42336). As to the kind of experiment: PI3K-alpha fluorescence polarization assay. The format is biochemical. The settings on record: read-out: PI3Kα Avg. IC50. A general note: Polarisation of emitted light reports the rotation of a fluorescent probe.
The target in another assay is T1, human TOR (Homo sapiens, UniProt P42345).
T1 construct: FLAG
As to the kind of experiment: mTOR enzyme assay (DELFIA, His6-S6K substrate). The format is biochemical. The note with it: read-out: mTOR Kinase Avg. IC50.

Sequence of PI3K-alpha (P42336 whole entry, species assumed): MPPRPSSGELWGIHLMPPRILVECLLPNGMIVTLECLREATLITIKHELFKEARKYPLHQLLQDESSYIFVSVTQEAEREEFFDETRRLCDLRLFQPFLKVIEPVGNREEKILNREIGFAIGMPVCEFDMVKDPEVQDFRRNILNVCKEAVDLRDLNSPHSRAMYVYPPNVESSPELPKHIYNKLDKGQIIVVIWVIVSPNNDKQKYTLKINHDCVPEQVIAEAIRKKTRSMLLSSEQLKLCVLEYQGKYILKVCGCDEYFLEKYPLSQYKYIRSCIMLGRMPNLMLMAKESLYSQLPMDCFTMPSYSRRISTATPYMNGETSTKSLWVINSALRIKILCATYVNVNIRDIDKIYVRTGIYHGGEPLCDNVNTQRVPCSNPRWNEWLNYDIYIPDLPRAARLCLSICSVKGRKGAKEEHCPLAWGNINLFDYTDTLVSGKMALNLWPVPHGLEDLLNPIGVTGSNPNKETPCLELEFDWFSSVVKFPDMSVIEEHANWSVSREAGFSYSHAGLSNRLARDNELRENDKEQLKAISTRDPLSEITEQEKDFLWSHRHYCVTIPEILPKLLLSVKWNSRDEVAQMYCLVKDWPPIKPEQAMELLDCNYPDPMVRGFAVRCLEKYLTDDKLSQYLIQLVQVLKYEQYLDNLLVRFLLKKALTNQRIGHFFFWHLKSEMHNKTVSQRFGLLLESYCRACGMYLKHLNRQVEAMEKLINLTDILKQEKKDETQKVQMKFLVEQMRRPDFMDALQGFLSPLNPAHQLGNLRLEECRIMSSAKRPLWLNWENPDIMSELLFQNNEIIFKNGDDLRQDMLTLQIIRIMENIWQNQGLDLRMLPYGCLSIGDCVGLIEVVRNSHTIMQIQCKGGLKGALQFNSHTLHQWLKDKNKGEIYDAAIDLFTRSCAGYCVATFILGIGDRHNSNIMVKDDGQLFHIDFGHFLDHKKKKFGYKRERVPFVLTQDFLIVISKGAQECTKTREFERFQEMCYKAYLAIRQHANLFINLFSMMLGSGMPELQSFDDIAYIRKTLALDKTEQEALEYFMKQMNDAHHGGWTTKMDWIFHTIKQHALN
Sequence of PI3K-alpha (P27986 whole entry partner, species assumed): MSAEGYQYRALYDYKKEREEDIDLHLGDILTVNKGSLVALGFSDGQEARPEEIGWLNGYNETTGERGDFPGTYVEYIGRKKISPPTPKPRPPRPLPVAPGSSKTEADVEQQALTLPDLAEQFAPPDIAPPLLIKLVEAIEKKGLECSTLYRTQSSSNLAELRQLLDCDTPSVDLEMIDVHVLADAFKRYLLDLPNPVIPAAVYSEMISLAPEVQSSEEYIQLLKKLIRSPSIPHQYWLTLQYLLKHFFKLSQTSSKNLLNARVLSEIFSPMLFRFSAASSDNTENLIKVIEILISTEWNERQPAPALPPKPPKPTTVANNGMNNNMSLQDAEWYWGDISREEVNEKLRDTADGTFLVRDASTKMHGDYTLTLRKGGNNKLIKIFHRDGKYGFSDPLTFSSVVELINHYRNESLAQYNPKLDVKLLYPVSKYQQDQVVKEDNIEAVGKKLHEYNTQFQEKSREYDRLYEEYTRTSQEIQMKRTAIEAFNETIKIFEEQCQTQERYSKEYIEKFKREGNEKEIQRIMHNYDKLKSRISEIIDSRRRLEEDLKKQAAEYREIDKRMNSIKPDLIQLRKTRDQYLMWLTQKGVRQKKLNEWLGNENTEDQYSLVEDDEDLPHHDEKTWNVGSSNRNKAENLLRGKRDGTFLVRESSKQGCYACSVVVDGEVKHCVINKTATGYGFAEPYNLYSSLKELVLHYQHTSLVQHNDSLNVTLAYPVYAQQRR

For `O=C1C(=Cc2c[nH]c3cc(Cl)ccc23)Oc2cc(O)cc(O)c21` [Example 172, 2-[(6-chloro-1H-indol-3-yl)methylene]-4,6-dihydroxy-1-benzofuran-3(2H)-one], the IC50 on PI3K-alpha turned out to be 936 nM; at human TOR it was 19 µM.

Take `Cn1c(-c2ccc(F)c(Cl)c2)c(C=C2Oc3cc(O)cc(O)c3C2=O)c2ccccc21` [Example 199, 2-{[2-(3-chloro-4-fluorophenyl)-1-methyl-1H-indol-3-yl]methylene}-4,6-dihydroxy-1-benzofuran-3(2H)-one]: the results for the IC50 at PI3K-alpha and at human TOR were 1560 nM and 1.4 µM, respectively.

Take `Cn1c(-c2ccccc2)c(C=C2Oc3ccccc3C2=O)c2ccccc21` [Example 3, 2-[(1-methyl-2-phenyl-1H-indol-3-yl)methylene]-1-benzofuran-3(2H)-one]: the results for the IC50 at PI3K-alpha and at human TOR were above 10000 nM and above 20 µM, respectively.

With `COc1ccc2c(C=C3Oc4cc(O)cc(O)c4C3=O)c[nH]c2c1` [Example 186, 4,6-dihydroxy-2-[(6-methoxy-1H-indol-3-yl)methylene]-1-benzofuran-3(2H)-one], the IC50 on PI3K-alpha amounted to 5760 nM; at human TOR it was 16 µM.

Regarding `O=C1C(=Cc2c[nH]c3cc4c(cc23)OCO4)Oc2cc(O)cc(O)c21` [Example 168, 2-(5H-[1,3]dioxolo[4,5-f]indol-7-ylmethylene)-4,6-dihydroxy-1-benzofuran-3(2H)-one], the IC50 at PI3K-alpha is 6540 nM; on human TOR, above 20 µM.

`CC(=O)Nc1ccc2[nH]c(C)c(C=C3Oc4cc(O)cc(O)c4C3=O)c2c1` [Example 216, N-{3-[(4,6-dihydroxy-3-oxo-1-benzofuran-2(3H)-ylidene)methyl]-2-methyl-1H-indol-5-yl}acetamide]: the 50% inhibitory concentration (IC50) at PI3K-alpha is 9500 nM; at human TOR, 11.5 µM.

In the case of `Cn1cc(C=C2Oc3cc(O)cc(O)c3C2=O)c2c(Cl)cccc21` [Example 252, 2-[(4-chloro-1-methyl-1H-indol-3-yl)methylene]-4,6-dihydroxy-1-benzofuran-3(2H)-one], the IC50 worked out at 555 nM at PI3K-alpha and 1.5 µM at human TOR.

As for `O=C1C(=Cc2c[nH]c3ccccc23)Oc2cc(O)ccc21` [Example 5, 6-hydroxy-2-(1H-indol-3-ylmethylene)-1-benzofuran-3(2H)-one], the IC50 on PI3K-alpha is above 10000 nM; on human TOR, above 20 µM.

Take `O=C1C(=Cc2c[nH]c3cc(C(F)(F)F)ccc23)Oc2cc(O)cc(O)c21` [Example 221, 4,6-dihydroxy-2-{[6-(trifluoromethyl)-1H-indol-3-yl]methylene}-1-benzofuran-3(2H)-one]: the IC50 on PI3K-alpha was 1160 nM; at human TOR it was above 20 µM.

Regarding `CCCn1c(-c2ccccc2)c(C=C2Oc3cc(O)cc(O)c3C2=O)c2ccccc21` [Example 214, 4,6-dihydroxy-2-[(2-phenyl-1-propyl-1H-indol-3-yl)methylene]-1-benzofuran-3(2H)-one], the values for the IC50 on PI3K-alpha and on human TOR were 4910 nM and 2.55 µM, respectively.

Take `O=C1C(=Cc2c[nH]c3ccc([N+](=O)[O-])cc23)Oc2cc(O)cc(O)c21` [Example 178, 4,6-dihydroxy-2-[(5-nitro-1H-indol-3-yl)methylene]-1-benzofuran-3(2H)-one]: the figures for the IC50 on PI3K-alpha and at human TOR were 1470 nM and 12.5 µM, respectively.

In the case of `COC(=O)c1cccc2c(C=C3Oc4cc(O)cc(O)c4C3=O)cn(C)c12` [Example 250, methyl 3-[(4,6-dihydroxy-3-oxo-1-benzofuran-2(3H)-ylidene)methyl]-1-methyl-1H-indole-7-carboxylate], the 50% inhibitory concentration (IC50) was 3550 nM at PI3K-alpha and above 20 µM on human TOR.

On to `COCCn1cc(C=C2Oc3cc(O)cc(O)c3C2=O)c2c(C#N)cccc21` [Example 266, 3-[(4,6-dihydroxy-3-oxo-1-benzofuran-2(3H)-ylidene)methyl]-1-(2-methoxyethyl)-1H-indole-4-carbonitrile], for which the IC50 on PI3K-alpha was found to be 290 nM; on human TOR, 0.81 µM.

In the case of `O=C1C(=Cc2c(-c3ccccc3)[nH]c3ccccc23)Oc2cccc(O)c21` [Example 75, 4-hydroxy-2-[(2-phenyl-1H-indol-3-yl)methylene]-1-benzofuran-3(2H)-one], the IC50 on PI3K-alpha came to 2520 nM; on human TOR, 5.9 µM.

As for `Cn1cc(C=C2Oc3cc(O)cc(O)c3C2=O)c2c(O)cccc21` [Example 254, 4,6-dihydroxy-2-[(4-hydroxy-1-methyl-1H-indol-3-yl)methylene]-1-benzofuran-3(2H)-one], the IC50 on PI3K-alpha is 1660 nM; at human TOR it was 0.65 µM.

Regarding `N#Cc1cccc2c1c(C=C1Oc3cc(O)cc(O)c3C1=O)cn2Cc1ccncc1` [Example 263, 3-[(4,6-dihydroxy-3-oxo-1-benzofuran-2(3H)-ylidene)methyl]-1-(pyridin-4-ylmethyl)-1H-indole-4-carbonitrile], the IC50 on PI3K-alpha was found to be 1680 nM; on human TOR, 0.26 µM.

With `O=C1C(=Cc2c(-c3ccccc3)n(Cc3ccncc3)c3ccccc23)Oc2cc(O)cc(O)c21` [Example 154, 4,6-dihydroxy-2-{[2-phenyl-1-(pyridin-4-ylmethyl)-1H-indol-3-yl]methylene}-1-benzofuran-3(2H)-one], the 50% inhibitory concentration (IC50) on PI3K-alpha is 1580 nM; at human TOR it was 0.54 µM.

Consider `Cc1ccc2[nH]cc(C=C3Oc4cc(O)cc(O)c4C3=O)c2c1` [Example 170, 4,6-dihydroxy-2-[(5-methyl-1H-indol-3-yl)methylene]-1-benzofuran-3(2H)-one], for which the results for the IC50 at PI3K-alpha and at human TOR were 5770 nM and above 20 µM, respectively.

`COc1ccc2c(c(C=C3Oc4cc(O)cc(O)c4C3=O)cn2CCCC#N)c1C` [Example 239, 4-{3-[(4,6-dihydroxy-3-oxo-1-benzofuran-2(3H)-ylidene)methyl]-5-methoxy-4-methyl-1H-indol-1-yl}butanenitrile]: the IC50 amounted to 4940 nM on PI3K-alpha and 5.9 µM at human TOR.

In the case of `O=C1C(=Cc2c(-c3ccsc3)[nH]c3ccccc23)Oc2cc(O)cc(O)c21` [Example 207, 4,6-dihydroxy-2-{[2-(3-thienyl)-1H-indol-3-yl]methylene}-1-benzofuran-3(2H)-one], the IC50 on PI3K-alpha is 1290 nM; at human TOR, 0.3 µM.

As for `O=C1C(=Cc2c[nH]c3ccc(OCc4ccccc4)cc23)Oc2cc(O)cc(O)c21` [Example 52, 2-{[5-(benzyloxy)-1H-indol-3-yl]methylene}-4,6-dihydroxy-1-benzofuran-3(2H)-one], the IC50 was 1890 nM at PI3K-alpha and above 5 µM on human TOR.

`Cc1c(C=C2Oc3cc(O)cc(O)c3C2=O)c2ccccc2n1CCCCl` [Example 93, 2-{[1-(3-chloropropyl)-2-methyl-1H-indol-3-yl]methylene}-4,6-dihydroxy-1-benzofuran-3(2H)-one]: the half-maximal inhibitory concentration (IC50) at PI3K-alpha was 2380 nM; on human TOR it was above 5 µM.

For the compound `Cn1cc(C=C2Oc3cc(O)cc(O)c3C2=O)c2cccc(Br)c21` [Example 249, 2-[(7-bromo-1-methyl-1H-indol-3-yl)methylene]-4,6-dihydroxy-1-benzofuran-3(2H)-one], the IC50 is 4810 nM on PI3K-alpha and above 20 µM at human TOR.

For `N#Cc1cccc2c1c(C=C1Oc3cc(O)cc(O)c3C1=O)cn2CCN1CCOCC1` [Example 262, 3-[(4,6-dihydroxy-3-oxo-1-benzofuran-2(3H)-ylidene)methyl]-1-(2-morpholin-4-ylethyl)-1H-indole-4-carbonitrile], the IC50 on PI3K-alpha is above 10000 nM; at human TOR, 0.42 µM.

As to `O=C1C(=Cc2c(-c3ccc(Cl)cc3)[nH]c3ccccc23)Oc2cccc(O)c21` [Example 76, 2-{[2-(4-chlorophenyl)-1H-indol-3-yl]methylene}-4-hydroxy-1-benzofuran-3(2H)-one], the IC50 is above 10000 nM on PI3K-alpha and 10 µM at human TOR.

For `CN(C)c1ccc(-c2c(C=C3Oc4cc(O)cc(O)c4C3=O)c3ccccc3n2C)cc1` [Example 198, 2-({2-[4-(dimethylamino)phenyl]-1-methyl-1H-indol-3-yl}methylene)-4,6-dihydroxy-1-benzofuran-3(2H)-one], the IC50 on PI3K-alpha was 4870 nM; at human TOR it was 4.5 µM.

Take `COc1cccc2c1c(C=C1Oc3cc(O)cc(O)c3C1=O)cn2C` [Example 255, 4,6-dihydroxy-2-[(4-methoxy-1-methyl-1H-indol-3-yl)methylene]-1-benzofuran-3(2H)-one]: the IC50 at PI3K-alpha came out at 2460 nM; at human TOR, 0.3 µM.

`Cn1cc(C=C2Oc3cc(O)cc(O)c3C2=O)c2c(Br)cccc21` [Example 253, 2-[(4-bromo-1-methyl-1H-indol-3-yl)methylene]-4,6-dihydroxy-1-benzofuran-3(2H)-one]: the IC50 at PI3K-alpha is 1430 nM; on human TOR it was 3.3 µM.

`Cn1c(-c2cccc(O)c2)c(C=C2Oc3cc(O)cc(O)c3C2=O)c2ccccc21` [Example 192, 4,6-dihydroxy-2-{[2-(3-hydroxyphenyl)-1-methyl-1H-indol-3-yl]methylene}-1-benzofuran-3(2H)-one]: the IC50 at PI3K-alpha amounted to 2420 nM; at human TOR it was 0.39 µM.

Consider `COc1ccc(-c2[nH]c3ccccc3c2C=C2Oc3cc(O)cc(O)c3C2=O)cc1` [Example 208, 4,6-dihydroxy-2-{[2-(4-methoxyphenyl)-1H-indol-3-yl]methylene}-1-benzofuran-3(2H)-one], for which the IC50 turned out to be 954 nM on PI3K-alpha and 0.3 µM on human TOR.

`O=C1C(=Cc2c[nH]c3c([N+](=O)[O-])cccc23)Oc2cc(O)cc(O)c21` [Example 180, 4,6-dihydroxy-2-[(7-nitro-1H-indol-3-yl)methylene]-1-benzofuran-3(2H)-one]: the IC50 at PI3K-alpha was 3120 nM; on human TOR, above 20 µM.

As to `Cc1c(C=C2Oc3cc(O)cc(O)c3C2=O)c2ccccc2n1C` [Example 247, 2-[(1,2-dimethyl-1H-indol-3-yl)methylene]-4,6-dihydroxy-1-benzofuran-3(2H)-one], the 50% inhibitory concentration (IC50) was 3150 nM on PI3K-alpha and 2.9 µM at human TOR.

`O=C1C(=Cc2c[nH]c3cc([N+](=O)[O-])ccc23)Oc2cc(O)cc(O)c21` [Example 179, 4,6-dihydroxy-2-[(6-nitro-1H-indol-3-yl)methylene]-1-benzofuran-3(2H)-one]: the figures for the IC50 on PI3K-alpha and at human TOR were 2470 nM and 16 µM, respectively.
